Measurements from PMC8228075, “In Vitro and In Silico Characterization of G-Protein Coupled Receptor (GPCR) Targets of Phlorofucofuroeckol-A and Dieckol” (Marine Drugs, 2021).

What was measured:
Format in all cases: cell-based
[1] = biological target: T1, Cannabinoid receptor 1 (CB1R) (Homo sapiens, UniProt P21554); experiment: hCB1R functional antagonist assay (cAMP, HTRF, CHO cells); conditions: reference antagonist; read-out: Reference Drugs, IC50
T1 construct: host or cells: CHO cells
Procedure: (§1) The in-house assay protocol and experimental conditions are reported in our previous reports. The functional effect of dieckol and PFF-A was characterized based on their modulation effect on cytosolic Ca^2+ ion mobilization using a fluorimetric detection method or by measuring their effect on cAMP modulation using homogeneous time-resolved fluorescence (HTRF) detection.
(§2) Functional activity of phlorotannins over hA2AR, hα2CAR, hCB1R, GLP-1R, and h5-HT1BR was determined by measuring their effects on cAMP production by the HTRF detection method using transected cells expressing human cloned receptors.
The transfected CHO cells were suspended in HBSS buffer (Invitrogen) complemented with 20 mM HEPES (pH 7.4). […] After 30 min of incubation at 37 °C, the cells were lysed and the fluorescence acceptor (D2-labeled cAMP) and fluorescence donor (anti-cAMP antibody labeled with europium cryptate) were added.

[2] = biological target: h5-HT1BR (Homo sapiens, UniProt P28222); experiment: h5-HT1BR functional antagonist assay (cAMP, HTRF, Hela cells)
Chain of h5-HT1BR (P28222 whole entry): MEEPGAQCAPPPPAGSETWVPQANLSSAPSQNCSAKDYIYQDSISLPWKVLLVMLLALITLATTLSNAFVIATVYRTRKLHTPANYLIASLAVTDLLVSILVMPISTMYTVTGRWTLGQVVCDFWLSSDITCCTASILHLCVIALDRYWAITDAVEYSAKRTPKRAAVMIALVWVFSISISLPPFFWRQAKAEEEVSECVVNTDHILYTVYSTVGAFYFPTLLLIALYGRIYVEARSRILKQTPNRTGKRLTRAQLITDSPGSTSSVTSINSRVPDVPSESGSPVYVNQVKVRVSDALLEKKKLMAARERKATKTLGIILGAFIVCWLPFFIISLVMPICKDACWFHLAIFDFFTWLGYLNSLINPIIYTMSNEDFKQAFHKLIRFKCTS
Procedure: as §1, §2
Concisely, a plasmid containing the GPCR gene of interest (5-HT1B) was transfected into Hela cells. The resulting stable transfectants were suspended in HBSS buffer (Invitrogen, Carlsbad, CA, USA) containing 20 mM HEPES (pH 7.4), […], 1 mg/mL glucose, and 500 μM IBMX and distributed in microplates at a density of 2 × 10^4 cells/well. […] Then, the cells were lysed and a fluorescence acceptor (D2-labeled cAMP) and fluorescence donor (anti-cAMP antibody with europium cryptate) were added following 60 min incubation at RT.

[3] = biological target: T2, Free fatty acid receptor 1 (FFA1R) (GPR40) (Homo sapiens, UniProt O14842); experiment: FFA1R/GPR40 functional agonist assay (Ca2+ mobilization, HEK-293 cells); conditions: reference agonist; read-out: Reference Drugs, EC50
T2 construct: host or cells: HEK-293 cells
T2 sequence (O14842 whole entry): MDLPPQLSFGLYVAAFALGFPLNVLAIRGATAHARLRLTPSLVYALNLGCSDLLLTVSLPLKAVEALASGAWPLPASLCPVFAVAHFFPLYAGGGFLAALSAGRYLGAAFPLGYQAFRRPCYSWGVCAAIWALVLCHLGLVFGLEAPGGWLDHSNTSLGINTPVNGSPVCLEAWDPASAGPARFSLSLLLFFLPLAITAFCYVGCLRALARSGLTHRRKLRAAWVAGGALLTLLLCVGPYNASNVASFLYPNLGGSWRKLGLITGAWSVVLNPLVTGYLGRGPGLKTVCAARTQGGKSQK
Procedure: The in-house assay protocol and experimental conditions are reported in our previous reports. […] Then, the mixture of fluorescent probe (Fluo4 Direct, Invitrogen) and probenecid in HBSS buffer (Invitrogen) complemented with 20 mM Hepes (Invitrogen) (pH 7.4) was added into each well and incubated for 60 min at 37 °C, followed by 15 min incubation at 22 °C. Thereafter, the assay plates were positioned in a CellLux microplate reader (PerkinElmer, Waltham, MA, USA) which was used for the addition of the following: For agonist assay-test compound, reference agonist, or HBSS buffer (basal control). Linoleic acid at 100 μM was added in separate assay wells for stimulated control measurement.

[4] = biological target: T3, Alpha-2A adrenergic receptor (hα2AAR) (Homo sapiens, UniProt P08913); experiment: hα2AAR functional antagonist assay (Ca2+ mobilization, rat basophil leukemia cells); conditions: reference antagonist; read-out: Reference Drugs, IC50
T3 construct: host or cells: rat basophil leukemia cells
T3 sequence (P08913 1-465): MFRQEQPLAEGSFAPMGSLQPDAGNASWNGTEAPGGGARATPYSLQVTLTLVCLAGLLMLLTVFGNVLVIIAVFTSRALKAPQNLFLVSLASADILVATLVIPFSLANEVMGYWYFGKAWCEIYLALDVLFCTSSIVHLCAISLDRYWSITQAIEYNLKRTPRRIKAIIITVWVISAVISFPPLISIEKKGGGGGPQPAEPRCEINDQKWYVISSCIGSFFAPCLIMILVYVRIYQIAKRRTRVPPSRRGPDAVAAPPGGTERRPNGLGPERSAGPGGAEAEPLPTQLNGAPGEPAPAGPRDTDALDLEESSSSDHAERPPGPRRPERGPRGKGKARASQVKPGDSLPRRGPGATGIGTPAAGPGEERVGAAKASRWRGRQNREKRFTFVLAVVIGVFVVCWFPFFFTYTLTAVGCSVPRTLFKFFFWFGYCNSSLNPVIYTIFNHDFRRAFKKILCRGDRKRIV
Excerpt: as §1
The rat basophil leukemia cells were distributed in microplates at a density of 1.1 × 10^4 cells/well after suspending in a HBSS buffer (Invitrogen) containing 20 mM HEPES. Then, the fluorescent probe (Fluo8, AAT Bioquest) mixed with probenecid in HBSS buffer (Invitrogen) complemented with 20 mM Hepes (Millipore) (pH 7.4) was added into each well incubated for 60 min at 30 °C. Thereafter, the assay plates were positioned in a microplate reader (FlipR Tetra, Molecular Device) and we added test compounds, reference agonist/antagonist or HBSS buffer (basal control). Change in fluorescence intensity which varies proportionally to the free cytosolic Ca^2+ ion concentration was measured.

T1 sequence (P21554 whole entry): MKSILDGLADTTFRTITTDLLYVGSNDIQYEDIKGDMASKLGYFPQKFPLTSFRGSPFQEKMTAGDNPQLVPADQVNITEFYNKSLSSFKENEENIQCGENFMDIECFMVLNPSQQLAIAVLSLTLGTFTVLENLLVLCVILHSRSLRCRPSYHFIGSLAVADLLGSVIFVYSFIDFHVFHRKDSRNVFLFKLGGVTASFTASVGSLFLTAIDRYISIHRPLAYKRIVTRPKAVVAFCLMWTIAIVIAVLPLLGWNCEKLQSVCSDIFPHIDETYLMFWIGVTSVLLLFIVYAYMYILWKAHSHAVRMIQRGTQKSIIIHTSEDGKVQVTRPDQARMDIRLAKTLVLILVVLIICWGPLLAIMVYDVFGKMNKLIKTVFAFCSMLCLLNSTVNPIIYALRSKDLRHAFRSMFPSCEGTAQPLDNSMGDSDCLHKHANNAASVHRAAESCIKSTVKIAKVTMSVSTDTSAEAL

Cc1c(C(=O)NN2CCOCC2)nn(-c2ccc(Cl)cc2Cl)c1-c1ccc(I)cc1 [AM 281, reference compound]
IC50 [1]: 77 nM

CN(C)CCCc1cc(C(=O)Nc2ccc(-c3ccncc3)cc2)ccc1O [GR55562, reference compound]
IC50 [2]: 23 nM

CCCCC/C=C\C/C=C\CCCCCCCC(=O)O [linoleic acid, reference compound]
EC50 [3]: 10000 nM

COC1(C2=NCCN2)COc2ccccc2O1 (stereo not shown) [RX-821002, reference compound]
IC50 [4]: 17 nM
